The record followed here is patent US4372964A, “Antiinflammatory 4,5-diaryl-1H-imidazole-2-methanols” (E. I. Du Pont de Nemours and Company, priority 1981, dated 1983).

Molecules are shown by their SMILES. Like-named read-outs stand apart in the source and are kept apart here. Where only a bound is given, the exact number is not on record here.

For assay [1], the system named is phenylquinone writhing in mice. Description: Phenylquinone Writhing Test. Particulars: Mus musculus, oral, observed from 30 minutes after dosing for 10 minutes. It counts as in vivo, female white mice. The method, then: Aqueous (0.10% phenyl-p-benzoquinone) phenylquinone was injected intraperitoneally at 24 minutes later using 0.20 ml per mouse.
In assay [2] the test system is adjuvant-induced arthritis in rats. Put plainly: Established Adjuvant-Induced Arthritis in Rats. The note with it: Rattus norvegicus; for ED50: oral once daily 7 days (days 14-20), decrease from control paw volume, day 21; for inhibition in vivo at 9 mg/kg: Table 3, dose 9 mg/kg. The assay is classed as in vivo, Lewis (Wistar) male rats.
Setting [3] is: 168 h, Table 4, dose 25 mg/kg, oral once daily 7 days, read-out: Adjuvant Arthritis, percent reduction in paw volume at the indicated dose.
[4] abbreviates: 168 h, Table 3, dose 25 mg/kg, oral once daily 7 days, read-out: Adjuvant Arthritis, percent reduction in paw volume at the indicated dose.
The mark [5] stands for this setting: 168 h, oral once daily 7 days, read-out: Adjuvant Arthritis, percent reduction in paw volume at the indicated dose.
The mark [6] stands for this setting: 168 h, Table 3, dose 50 mg/kg, oral once daily 7 days, read-out: Adjuvant Arthritis, percent reduction in paw volume at the indicated dose.

Consider `COc1ccc(-c2nc(C(O)C(F)(F)F)n(C)c2-c2ccc(OC)cc2)cc1` (centres unmarked) [Example 19], for which the ED50 in assay [1] (Table 3, Formula I) is greater than 108 mg/kg. The inhibition in vivo at 27 mg/kg in assay [2] (168 h, Table 3, dose 27 mg/kg, oral once daily 7 days, read-out: Adjuvant Arthritis, percent reduction in paw volume at the indicated dose) came out at 0%.
On to `CCCC(O)(c1nc(-c2ccc(F)cc2)c(-c2ccc(F)cc2)[nH]1)C(F)(F)F` (centres unmarked) [Example 32], for which the ED50 in assay [1] (Table 3, Formula I) is greater than 108 mg/kg; in assay [2] (Table 3, Formula I) it was 8.6 mg/kg.
For `COc1ccc(-c2nc(C(O)(C(F)(F)F)C(F)(F)Cl)[nH]c2-c2ccc(OC)cc2)cc1` (centres unmarked) [Example 12] the same measures were 42 mg/kg and 6 mg/kg.
As for `CC(O)(c1nc(-c2ccc(F)cc2)c(-c2ccc(F)cc2)[nH]1)C(F)(F)C(F)(F)F` (stereo not drawn) [Example 11, 4,5-Bis(4-Fluorophenyl)-α-methyl-α-/pentafluoroethyl-1H-imidazole-2-methanol], the ED50 is greater than 108 mg/kg in assay [1] (Table 3, Formula I) and 1.4 mg/kg in assay [2] (Table 3, Formula I).
As for `OC(c1nc(-c2ccccc2)c(-c2ccccc2)[nH]1)(C(F)(F)F)C(F)(F)F` [Example 20], the ED50 came to 57 mg/kg in assay [1] (Table 3, Formula I) and 27 mg/kg in assay [2] (Table 3, Formula I).
For `COc1ccc(-c2nc(C(=O)C(F)(F)F)[nH]c2-c2ccc(OC)cc2)cc1` [Example 9, 1-[4,5-Bis(4-methoxyphenyl)-1H-imidazol-2-yl]2,2,2-trifluoro-1-ethanone], the ED50 was greater than 108 mg/kg in assay [1] (Table 4, Formula II) and 25 mg/kg in assay [2] (Table 4, Formula II).
Turning to `COc1ccc(-c2nc(C(=O)C(F)(F)C(F)(F)F)[nH]c2-c2ccc(OC)cc2)cc1` [Example 38, 1-[4,5-bis(4-methoxyphenyl)-1H-imidazol-2-yl]-2,2,3,3,3-pentafluoro-1-propanone], the 50% effect level in assay [1] (Table 4, Formula II) (ED50) was put at a dose of 2.3 mg/kg. The inhibition in vivo at 25 mg/kg in assay [2] (setting [3]) is 62%.
On to `COc1ccc(-c2nc(C(O)C(F)(F)F)[nH]c2-c2ccc(OC)cc2)cc1` (stereo not drawn) [Example 10, 4,5-Bis(4-methoxyphenyl)-α-(trifluoromethyl)-1H-imidazole-2-methanol], for which the ED50 in assay [1] (Table 3, Formula I) was found to be 1.9 mg/kg; in assay [2] (Table 3, Formula I) it was 45 mg/kg.
For `COc1ccc(-c2nc(C(O)(C(F)(F)F)C(F)(F)F)[nH]c2-c2ccc(OC)cc2)cc1` [Example 2, 4,5-Bis(4-methoxyphenyl)-α,α-di(trifluoromethyl)-1H-imidazole-2-methanol] the same measures were 2.7 mg/kg and 5 mg/kg.
For `CC(=O)OC(c1nc(-c2ccc(F)cc2)c(-c2ccc(F)cc2)[nH]1)(C(F)(F)F)C(F)(F)F` [Example 25] the same measures were greater than 108 mg/kg and 13 mg/kg.
For `COc1ccc(-c2nc(C(C)O)[nH]c2-c2ccc(OC)cc2)cc1` (centres unmarked) [Example 35] the same measures were 26 mg/kg and 3.6 mg/kg.
As to `CSc1ccc(-c2[nH]c(C(O)(C(F)(F)F)C(F)(F)F)nc2-c2ccc(F)cc2)cc1` [Example 21], the inhibition in vivo at 15 mg/kg in assay [2] (168 h, Table 3, dose 15 mg/kg, oral once daily 7 days, read-out: Adjuvant Arthritis, percent reduction in paw volume at the indicated dose) amounted to 61%.
Consider `OC(c1nc(-c2ccc(F)cc2)c(-c2ccc(F)cc2)[nH]1)C(F)(F)C(F)(F)F` (centres unmarked) [Example 23], for which the ED50 in assay [1] (Table 3, Formula I) came to 24 mg/kg; in assay [2] (Table 3, Formula I), 6.8 mg/kg.
Regarding `Cn1c(C(C)(C)O)nc(-c2ccc(F)cc2)c1-c1ccc(F)cc1` [Example 26], in assay [1] (Table 3, Formula I), the ED50 is greater than 108 mg/kg. Also, the inhibition in vivo at 25 mg/kg in assay [2] (setting [4]) worked out at 47%.
As to `CC(O)(c1nc(-c2ccc(F)cc2)c(-c2ccc(F)cc2)[nH]1)C(F)(F)F` (stereo not drawn) [Example 3, 4,5-Bis(4-fluorophenyl)-α-methyl-α-trifluoromethyl-1H-imidazole-2-methanol], the ED50 worked out at 39 mg/kg in assay [1] (Table 3, Formula I) and 1.8 mg/kg in assay [2] (Table 3, Formula I).
The like results for `OC(c1nc(-c2ccc(F)cc2)c(-c2ccc(F)cc2)[nH]1)C(F)(F)F` (centres unmarked) [Example 27] were, in that order, greater than 108 mg/kg and 14 mg/kg.
The like results for `COc1ccc(-c2nc(C(C)(O)C(F)(F)C(F)(F)F)[nH]c2-c2ccc(OC)cc2)cc1` (stereo not drawn) [Example 29, 4,5-bis(4-methoxyphenyl)-α-methyl-α-pentafluoroethyl-1H-imidazole-2-methanol] were, in that order, 3.5 mg/kg and 15 mg/kg.
`CCOC(=O)OC(c1nc(-c2ccc(OC)cc2)c(-c2ccc(OC)cc2)n1C)(C(F)(F)F)C(F)(F)F` [Example 6, 4,5-Bis(4-methoxyphenyl)-1-methyl-α,α-di(trifluoromethyl)-1H-imidazole-2-methanol, Ethylcarbonate] showed an ED50 in assay [1] (Table 3, Formula I) greater than 108 mg/kg. Moreover, the inhibition in vivo at 45 mg/kg in assay [2] (168 h, Table 3, dose 45 mg/kg, oral once daily 7 days, read-out: Adjuvant Arthritis, percent reduction in paw volume at the indicated dose) worked out at 17%.
`CSc1ccc(-c2[nH]c(C(C)(O)C(F)(F)F)nc2-c2ccc(F)cc2)cc1` (centres unmarked) [Example 24] gave an ED50 in assay [1] (Table 3, Formula I) of 102 mg/kg. In addition, the inhibition in vivo at 9 mg/kg in assay [2] (setting [5]) was determined as 51%.
With `COc1ccc(-c2nc(C(C)(O)C(F)(F)F)[nH]c2-c2ccc(OC)cc2)cc1` (stereo not drawn) [Example 18, 4,5-bis(4-methoxyphenyl)-α-methyl-α-trifluoromethyl-1H-imidazole-2-methanol], the ED50 in assay [1] (Table 3, Formula I) was 2.2 mg/kg; in assay [2] (Table 3, Formula I), 5.4 mg/kg.
For the molecule `CCC(C)(O)c1nc(-c2ccc(OC)cc2)c(-c2ccc(OC)cc2)[nH]1` (centres unmarked) [Example 34], it took a dose of 5.2 mg/kg to reach the 50% effect level in assay [1] (Table 3, Formula I) (ED50). The inhibition in vivo at 50 mg/kg in assay [2] (setting [6]) was found to be 82%.
The molecule `COc1ccc(-c2nc(C(C)=O)[nH]c2-c2ccc(OC)cc2)cc1` [Example 40] registered an ED50 in assay [1] (Table 4, Formula II) greater than 135 mg/kg. The inhibition in vivo at 50 mg/kg in assay [2] (168 h, Table 4, dose 50 mg/kg, oral once daily 7 days, read-out: Adjuvant Arthritis, percent reduction in paw volume at the indicated dose) was found to be 56%.
For `CC(=O)c1nc(-c2ccc(F)cc2)c(-c2ccc(F)cc2)[nH]1` [Example 41], the inhibition in vivo at 25 mg/kg in assay [2] (setting [3]) amounted to 0%.
Regarding `OC(c1nc(-c2ccccc2)c(-c2ccc(Cl)c(Cl)c2)[nH]1)(C(F)(F)F)C(F)(F)F` [Example 17], the inhibition in vivo at 50 mg/kg in assay [2] (setting [6]) amounted to 21%.
`O=C(c1nc(-c2ccc(F)cc2)c(-c2ccc(F)cc2)[nH]1)C(F)(F)F` [Example 8, 1-[4,5-Bis(4-fluorophenyl)-1H-imidazol-2-yl]-2,2,2-trifluoro-1-ethanone] yielded an ED50 in assay [1] (Table 4, Formula II) greater than 108 mg/kg. Also, the inhibition in vivo at 25 mg/kg in assay [2] (setting [3]) is 49%.
Take `COc1ccc(-c2nc(C(C)(C)O)[nH]c2-c2ccc(OC)cc2)cc1` [Example 30, 4,5-bis(4-methoxyphenyl)-α,α-dimethyl-1H-imidazole-2-methanol]: the ED50 came out at 4.6 mg/kg in assay [1] (Table 3, Formula I) and 6.4 mg/kg in assay [2] (Table 3, Formula I).
Consider `O=C(c1nc(-c2ccc(F)cc2)c(-c2ccc(F)cc2)[nH]1)C(F)(F)C(F)(F)F` [Example 39, 1-[4,5-bis(4-fluorophenyl)-1H-imidazol-2-yl]-2,2,3,3,3-pentafluoro-1-propanone], for which, in assay [2] (Table 4, Formula II), the ED50 was 3 mg/kg.
`CCC(O)(c1nc(-c2ccc(F)cc2)c(-c2ccc(F)cc2)[nH]1)C(F)(F)F` (stereo not drawn) [Example 31, 4,5-bis(4-fluorophenyl)-α-ethyl-α-trifluoromethyl-1H-imidazole-2-methanol]: the ED50 in assay [1] (Table 3, Formula I) was greater than 108 mg/kg; in assay [2] (Table 3, Formula I), 1.7 mg/kg.
The like results for `OC(c1nc(-c2ccc(F)cc2)c(-c2ccc(F)cc2)[nH]1)(C(F)F)C(F)(F)F` (stereo not drawn) [Example 16, 4,5-bis(4-fluorophenyl)-α-difluoromethyl-α-trifluoromethyl-1H-imidazole-2-methanol] were, in that order, greater than 108 mg/kg and 4.8 mg/kg.
For the molecule `OC(c1nc(-c2ccc(Cl)cc2)c(-c2ccc(Cl)cc2)[nH]1)(C(F)(F)F)C(F)(F)F` [Example 22], in assay [1] (Table 3, Formula I), the ED50 is greater than 135 mg/kg. Moreover, the inhibition in vivo at 9 mg/kg in assay [2] (setting [5]) came to 37%.
As to `COc1ccc(-c2nc(C(C)(O)C3CC3)[nH]c2-c2ccc(OC)cc2)cc1` (centres unmarked) [Example 33], in assay [1] (Table 3, Formula I), the 50% effect level (ED50) was put at a dose of 5.6 mg/kg. For the same molecule, the inhibition in vivo at 9 mg/kg in assay [2] (setting [5]) came out at 46%.
On to `COc1ccc(-c2nc(C(OC)(C(F)(F)F)C(F)(F)F)[nH]c2-c2ccc(OC)cc2)cc1` [Example 7, 4,5-Bis(4-methoxyphenyl)-2-[1-methoxy-2,2,2-trifluoro-1-(trifluoromethyl)ethyl]-1H-imidazole], for which the ED50 came out at 32 mg/kg in assay [1] (Table 3, Formula I) and 4.4 mg/kg in assay [2] (Table 3, Formula I).
`CC(C)(O)c1nc(-c2ccc(F)cc2)c(-c2ccc(F)cc2)[nH]1` [Example 28] yielded an ED50 in assay [1] (Table 3, Formula I) greater than 108 mg/kg. In addition, the inhibition in vivo at 50 mg/kg in assay [2] (setting [6]) is 48%.
Turning to `OC(c1nc(-c2ccc(F)cc2)c(-c2cccs2)[nH]1)(C(F)(F)F)C(F)(F)F` [Example 14], the ED50 in assay [1] (Table 3, Formula I) was greater than 108 mg/kg; in assay [2] (Table 3, Formula I), 90 mg/kg.
On to `OC(c1nc(-c2ccc(F)cc2)c(-c2ccc(F)cc2)[nH]1)(C(F)(F)F)C(F)(F)F` [Example 1, 4,5-Bis(4-fluorophenyl)-α,α-di(trifluoromethyl)-1H-imidazole-2-methanol], for which the ED50 in assay [1] (Table 3, Formula I) was greater than 108 mg/kg; in assay [2] (Table 3, Formula I), 8 mg/kg.
Consider `CSc1ccc(-c2[nH]c(C(=O)C(F)(F)F)nc2-c2ccc(F)cc2)cc1` [Example 37], for which the ED50 in assay [1] (Table 4, Formula II) is greater than 108 mg/kg. The inhibition in vivo at 25 mg/kg in assay [2] (setting [3]) is 24%.
Molecule `COc1ccc(-c2nc(C(OC(C)=O)(C(F)(F)F)C(F)(F)F)n(C)c2-c2ccc(OC)cc2)cc1` [Example 5, 4,5-Bis(4-methoxyphenyl)-1-methyl-α,α-di(trifluoromethyl)-1H-imidazole-2-methanol, Acetate] gave an ED50 in assay [1] (Table 3, Formula I) greater than 108 mg/kg. In addition, the inhibition in vivo at 25 mg/kg in assay [2] (setting [4]) was determined as 45%.
Consider `COc1ccc(-c2nc(C(O)(C(F)(F)F)C(F)(F)F)n(C)c2-c2ccc(OC)cc2)cc1` [Example 4, 4,5-Bis(4-methoxyphenyl)-1-methyl-α,α-(trifluoromethyl)-1H-imidazole-2-methanol], for which the ED50 is greater than 135 mg/kg in assay [1] (Table 3, Formula I) and 15 mg/kg in assay [2] (Table 3, Formula I).
The like results for `COc1ccc(-c2nc(C(O)(C(F)(F)Cl)C(F)(F)Cl)[nH]c2-c2ccc(OC)cc2)cc1` [Example 13] were, in that order, 135 mg/kg and 15 mg/kg.

One may read the ED50 as the dose at which the effect has come halfway, by size or by number of responders.
